Results from US20150153325A1 (priority 2012, published 2015).
“And” between values parts separate entries of the source, which are not always exact repeats. Equal entries are not always repeated. Where two headings read alike, the source gives them in different places.

Columns and labels:
[1] = target: VAMP2 (Mus musculus, UniProt P63044); format: cell-based
[2] = tested on: ESNs; format: cell-based, mouse; conditions: read-out: EC50 for Ca^2+ uptake
[3] = tested on: Ca^2+ influx through LTX pores; format: cell-based, mouse
[4] = tested on: BoNT/A-intoxicated ESNs; format: cell-based, mouse
[5] = tested on: ESNs; format: cell-based, mouse
[6] = tested on: ESNs; format: cell-based, mouse; remark: listed apart in the source
[7] = tested on: ESNs; experiment: cells; format: cell-based, mouse; conditions: read-out: EC50 of loss of viability (metabolic activity)
[8] = tested on: ESNs; format: cell-based, mouse; remark: listed apart in the source
[9] = tested on: glutamate-induced neurotoxicity in ESNs; format: cell-based, mouse
[10] = tested on: ESNs; format: cell-based, mouse; remark: listed apart in the source
[11] = tested on: ESNs; conditions: mouse
[12] = tested on: ESNs; format: cell-based, mouse; remark: listed apart in the source

Chain of VAMP2 (P63044 2-116 limits assumed): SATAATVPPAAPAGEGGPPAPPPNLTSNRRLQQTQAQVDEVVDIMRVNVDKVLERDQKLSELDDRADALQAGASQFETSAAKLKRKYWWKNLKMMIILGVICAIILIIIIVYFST

Tetanospasmin neurotoxin [tetanus]
VAMP2 signal by immunoblot [1]: nearly complete loss of VAMP2 signal

α-Latrotoxin [LTX]
EC50 [2]: 0.175 nM | Ca^2+ influx, normalized to LTX (%) [3]: 100.0% | rescue of full-length SNAP-25 [4]: 92±4.6% and 98±1.7% | delay between addition and onset of Fluo-4 fluorescence [5]: 1.5 min | decrease of total protein yield compared to controls [6]: 44±16% and 52±19% | decrease of total protein yield relative to untreated cultures [6]: approximately 50%

CN[C@H](CC(=O)O)C(=O)O [NMDA, N-methyl-D-aspartate]
EC50 [7]: 390 nM

NCc1cc(=O)[nH]o1 [muscimol]
GABA-A receptor current [8]: evokes a strong outward Cl− current

N[C@H](CCCP(=O)(O)O)C(=O)O [APV, R-2-amino-5-phosphonopentanoate]
effect on NMDA-induced neurotoxicity [9]: blocked in a dose-dependent manner | effect on glutamate-induced cell death [9]: prevented glutamate-induced cell death in a dose-dependent manner

N[C@@H](CCC(=O)O)C(=O)[O-].[Na+] [glutamate, Mono-sodium glutamate]
EC50 ([7]; Mus musculus, 24 h): 410 nM | Normalize log2 (FC) Casp4 [10]: 2.96 | Normalize log2 (FC) Casp6 [10]: 2.15 | Normalize log2 (FC) Casp12 [10]: 3.03 | Normalize log2 (FC) Cdk1 [10]: 3.11 | Normalize log2 (FC) CflaR [10]: 2.54 | Normalize log2 (FC) Dap1 [10]: 2.84 | Normalize log2 (FC) Dapk2 [10]: 4.18 | Normalize log2 (FC) Dram1 [10]: 2.63 | Normalize log2 (FC) Fadd1 [10]: 1.98 | Normalize log2 (FC) Grin1 [10]: 0.39 | Normalize log2 (FC) Pawr [10]: 3.49 | Normalize log2 (FC) Snap25 [10]: −0.52 | Normalize log2 (FC) Traf1 [10]: 5.02 | duration of evoked series of action potentials [8]: 5 to 10 s | concentration at which primary necrosis was first observed [11]: 3000 µM

NCCCC(=O)O [GABA, γ-aminobutyric acid]
acute Ca^2+ uptake [12]: no effect

gadolinium chloride [Gd^3+]
effect on glutamate-induced cell death [9]: no effect on viability | elimination of acute glutamate-evoked Ca^2+ signal [12]: over 95%

N#Cc1cc2c(cc1[N+](=O)[O-])=NC(=O)C(=O)N=2 [CNQX, 6-cyano-7-nitroquinoxaline-2,3-dione]
effect on glutamate-induced cell death [9]: not protective
